Source: patent US7304166B2, “Benzenesulfonate salt of 4-fluoro-2-cyanopyrrolidine derivatives” (Taisho Pharmaceutical Co., Ltd., priority 2002, dated 2007)

Assays:
Format in all cases: physicochemical
[1] = Solid-state stability testing (remaining percentage by HPLC)
Description: Each analyte (about 1 mg) was precisely metered and stored in a screw-capped test tube covered with aluminum foil for light shielding, which was sealed under heated conditions (70° C.) or opened under heated and humidified conditions (40° C., 75% RH). The remaining percentage of each drug was measured in the following manner. After completion of a given period of storage, the test tubes were supplemented with 10 ml HPLC mobile phase to dissolve the analytes and then provided for quantification by HPLC. The results were compared in area with the initial values obtained before heating or before heating and humidification to calculate the remaining percentage of drugs.
Column temperature: 40° C.
Detection: UV absorptiometer (Detection wavelength: 210 nm)
Mobile phase: water/acetonitrile/phosphoric acid/SDS (700:300:1:2)

[2] = Testing for weight change under humidified conditions; conditions: room temperature; for Change in weight / State: desiccator containing water
Description: Each analyte (10.0 mg) was metered into a microtube (diameter: 8 mm, length: 50 mm) and allowed to stand in a desiccator containing water in such a manner as to keep the tube from coming into contact with water. The desiccator was allowed to stand at room temperature. The analytes were monitored for their state and measured for their weight with time. Changes in weight were expressed as percentages (%).

[3] = Compatibility testing with additives (remaining percentage by HPLC); conditions: 65° C. for 1 week, sealed, methanesulfonate salt
Description: This testing was performed according to the report of Serajuddin A. T. M. et al. (J. Pharm. Sci., 88, 696-704, 1999). A drug substance and additives were metered into a screw-capped test tube according to Recipe A (10 mg drug substance, 68 mg crystalline cellulose, 2 mg magnesium stearate) or Recipe B (10 mg drug substance, 68 mg lactose, 2 mg hydrogenated oil) and mixed in a rotary mixer (MIX-ROTAR VMR-5, Iuchi Seieido Co., Ltd., Japan) for 1 hour. The mixture according to Recipe A or B was further stirred using a vortex mixer (TOUCH MIXER MT-31, Yamato Scientific Co., Ltd., Japan), provided that Recipe A was supplemented with no additional ingredient, while Recipe B was supplemented with 16 μl purified water. The mixtures were stored at 65° C. for 1 week under sealed and completely light-shielded conditions and then measured for drug content after storage to calculate the remaining percentage of each drug in each recipe.
The drug content was determined in the following manner. […] The resulting solutions were each filtered through a 0.45 μm membrane filter, 5 ml of which was sampled and filled up with 50% methanol in a 10 ml measuring flask for use as a sample solution and then quantified by HPLC. […]

[4] = 40° C., 75% RH for 1 month, opened, light-shielded
[5] = 70° C. for 3 days, sealed, light-shielded
[6] = humidified conditions, over the test period

| SMILES | Remaining percentage of drug [1, 4] [%] | Remaining percentage of drug [1, 5] [%] | Change in weight ([2]; Day 1) | State ([2]; Day 1) | State under humidified conditions [2, 6] | Remaining percentage of drug ([1]; under either condition (70° C. 3 days; 40° C., 75% RH 1 month)) [%] | State ([2]; Day 3) | Change in weight under humidified conditions [2, 6] | Remaining percentage of drug ([3]; Recipe A (crystalline cellulose, magnesium stearate)) [%] | Remaining percentage of drug ([3]; Recipe B (lactose, hydrogenated oil, purified water)) [%] | Change in weight ([2]; Day 2) | State ([2]; Day 2) |
| --- | --- | --- | --- | --- | --- | --- | --- | --- | --- | --- | --- | --- |
| CC(C)(CO)NCC(=O)N1C[C@@H](F)C[C@H]1C#N.Cl [Reference Example 1, (2S,4S)-2-cyano-4-fluoro-1-[(2-hydroxy-1,1-dimethyl)ethylamino]acetylpyrrolidine hydrochloride salt] | 92.6 | 97.0 | +44% | Deliquescence | deliquesced | – | – | – | – | – | – | – |
| CC(C)(CO)NCC(=O)N1C[C@@H](F)C[C@H]1C#N.O=S(=O)(O)c1ccccc1 [Example 1, (2S,4S)-2-cyano-4-fluoro-1-[(2-hydroxy-1,1-dimethyl)ethylamino]acetylpyrrolidine benzenesulfonate salt] | 99.6 | 99.3 | – | – | no deliquescence | ≥ 99 | No change | no change in weight | – | – | – | – |
| CC(C)(CO)NCC(=O)N1C[C@@H](F)C[C@H]1C#N.CS(=O)(=O)O [Reference Example 2, (2S,4S)-2-cyano-4-fluoro-1-[(2-hydroxy-1,1-dimethyl)ethylamino]acetylpyrrolidine methanesulfonate salt] | 95.9 | 95.5 | +28% | – | deliquesced | – | – | – | 91.6 | 74.5 | +71% | Deliquescence |
